# Source: PubChem BioAssay (NCI)
# “And” between values parts separate entries of the source, which are not always exact repeats. Identical values can stand only once.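 Where inhibition never reached the appropriate level, the endpoint shown equals the highest concentration tested. Otherwise, values were interpolated linearly from a five-concentration, 48-hour dose response in 96-well plates. GI50 = concentration required for 50% inhibition of growth. TGI marks complete inhibition of growth.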
# Columns and labels:
# Assay in all cases: growth of human tumour cells (NCI), 48 h
# [1] = tested on: COLO 205 colon
# [2] = tested on: HS 578T breast
# [3] = tested on: HT29 colon
# [4] = tested on: LOX IMVI melanoma
# [5] = tested on: MOLT-4 leukemia
# [6] = tested on: RXF 393 renal
# [7] = tested on: SNB-75 CNS
# [8] = tested on: SR leukemia
# [9] = tested on: TK-10 renal
# [10] = tested on: U251 CNS
SMILES,GI50 [1],TGI [1],GI50 [2] [µM],TGI [2] [µM],GI50 [3],TGI [3],GI50 [4],TGI [4],GI50 [5],TGI [5],GI50 [6],TGI [6],GI50 [7],TGI [7],GI50 [8],TGI [8],GI50 [9],TGI [9],GI50 [10],TGI [10]
COC(=O)CNC(=O)[C@@H](OC)[C@@H]1Cc2cc3cc(OC4CC(OC5CC(O)C(O)C(C)O5)C(O)C(C)O4)c(C)c(O)c3c(O)c2C(=O)[C@H]1OC1CC(OC2CC(OC3CC(C)(O)C(O)C(C)O3)C(O)C(C)O2)C(O)C(C)O1 (some centres not stated),0.148 µM,1.18 µM,0.123,2.64,0.171 µM,> 50 µM,0.0592 µM,> 50 µM,0.198 µM,3.35 µM,0.0877 µM,0.355 µM,0.127 µM,0.9 µM,0.0298 µM,> 50 µM,0.402 µM,> 50 µM,0.0806 µM,> 50 µM
CC(CNC(Cc1ccccc1)c1ccccc1)NC(Cc1ccccc1)c1ccccc1 (configuration not stated),1.66 µM,3.46 µM,2.64,8.27,1.97 µM,4.04 µM,1.62 µM,2.98 µM,2.06 µM,6.03 µM,1.66 µM,3.19 µM,2.07 µM,11.7 µM,1.84 µM,4.49 µM,3.22 µM,12.5 µM,2.59 µM,7.37 µM
Cc1cc(C(C#N)c2ccc(Cl)cc2)c(Cl)cc1NC(=O)c1cc(I)cc(I)c1O (configuration not stated),15.2 µM and 16.2 µM,28.8 µM and 29.7 µM,12,34.4,7.23 µM and 18.6 µM,22.6 µM and 40.4 µM,10.4 µM and 16.7 µM,26.1 µM and 35.5 µM,4.74 µM and 22.6 µM,19.3 µM and 53.9 µM,10.8 µM and 5.95 µM,23.7 µM and 19.4 µM,12.3 µM and 6.96 µM,41.5 µM and 25.6 µM,5.97 µM and 9.04 µM,34.5 µM and > 100 µM,11.8 µM and 22.4 µM,33.9 µM and 65.4 µM,6.1 µM and 16 µM,33.4 µM and 38.2 µM
CCOc1ccc(NCc2cc(OC)c(OC)c(OC)c2)cc1,–,2.46 µM and 5.04 µM,0.823,> 100,–,8.98 µM and 11.8 µM,–,> 84 µM,–,> 100 µM,2.24 µM,–,–,> 100 µM,–,> 100 µM,> 100 µM,> 100 µM,–,19.3 µM and 22.3 µM
CN(C)C(=S)N=Nc1c(O)[nH]c2ccccc12,0.356 µM,3.56 µM,2.95,67.6,0.558 µM,17 µM,0.46 µM,13.5 µM,0.619 µM,> 49.7 µM,1.05 µM,14.5 µM,3.01 µM,18.5 µM,0.429 µM,9.38 µM,0.721 µM,14.7 µM,0.392 µM,27.6 µM
C=C1C(=O)O[C@H]2[C@H]1CC/C(COC(=O)N1CCC[C@H]1C(=O)Nc1ccc(OC)c(C(N)=O)c1O)=C\CC[C@@]1(C)O[C@@H]21,1.6 µM,3.28 µM,17.9,> 100,3.24 µM,11.1 µM,1.39 µM,3.23 µM,2.24 µM,5.63 µM,1.2 µM,2.79 µM,2.67 µM,14.9 µM,1.59 µM,12.7 µM,1.92 µM,7.16 µM,6.76 µM,20.9 µM
CC(=O)Nc1ccc2c(c1)oc(=O)c1cc(NC(C)=O)ccc12,41.7 µM,> 100 µM,63.4,> 100,54 µM,> 100 µM,75.6 µM,> 100 µM,18.9 µM,> 100 µM,> 100 µM,> 100 µM,> 100 µM,> 100 µM,8.52 µM,77.4 µM,98.7 µM,> 100 µM,> 100 µM,> 100 µM
Cc1cc2c3ccccc3n(C)c2c2c1C(=O)C=CC2=O,–,33.6 µM,–,55.2,–,20.5 µM,–,32.9 µM,–,46.3 µM,–,20.5 µM,–,60 µM,–,38.9 µM,–,31.2 µM,–,32.6 µM
O=C1/C(=C/c2ccc(O)cc2)COc2ccc(-c3ccccc3)cc21,10.6 µM,33.9 µM,3.79,24.3,3.35 µM,11.5 µM,3.54 µM,13.3 µM,1.62 µM,> 32.5 µM,3.35 µM,8.25 µM,5.17 µM,15.5 µM,1.63 µM,> 28.4 µM,2.98 µM,11.9 µM,5.1 µM,17.8 µM
